From publication PMC9040678, “Sequence-specific capture and concentration of viral RNA by type III CRISPR system enhances diagnostic” (Research Square, 2022)

Molecular target: T1, TtCan1 (Thermus thermophilus, UniProt Q53W14)
T1 construct: gene TTHB155; codon-optimised synthetic gene, E. coli BL21(DE3); N-terminal His6-TwinStrep-SUMO tag removed; monomeric
T1 sequence (Q53W14 1-636): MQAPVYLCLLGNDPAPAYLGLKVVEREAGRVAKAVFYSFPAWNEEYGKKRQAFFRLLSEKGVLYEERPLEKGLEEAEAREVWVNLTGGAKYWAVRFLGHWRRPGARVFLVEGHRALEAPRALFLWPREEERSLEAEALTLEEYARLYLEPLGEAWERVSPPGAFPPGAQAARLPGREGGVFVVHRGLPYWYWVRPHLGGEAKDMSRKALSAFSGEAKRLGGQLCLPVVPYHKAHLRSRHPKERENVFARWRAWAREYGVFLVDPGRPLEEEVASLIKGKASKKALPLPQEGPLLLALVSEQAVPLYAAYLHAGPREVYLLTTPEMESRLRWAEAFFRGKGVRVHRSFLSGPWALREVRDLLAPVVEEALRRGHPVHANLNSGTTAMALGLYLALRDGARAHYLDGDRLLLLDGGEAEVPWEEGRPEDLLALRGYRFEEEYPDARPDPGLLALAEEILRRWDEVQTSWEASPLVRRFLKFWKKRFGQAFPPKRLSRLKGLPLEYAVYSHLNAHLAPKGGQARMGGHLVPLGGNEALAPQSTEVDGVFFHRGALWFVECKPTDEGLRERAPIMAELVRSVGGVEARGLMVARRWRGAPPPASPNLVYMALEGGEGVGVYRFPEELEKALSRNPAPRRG
Experiment: ssRNA cleavage, denaturing PAGE; fluorescent RNA reporters
Format: biochemical
Conditions: allosteric activator of ssRNase activity; 200 nM enzyme, 20 nM cA4, pH 7.8, 60 °C

Nc1ncnc2c1ncn2[C@@H]1O[C@@H]2COP(=O)(O)O[C@H]3[C@@H](O)[C@H](n4cnc5c(N)ncnc54)O[C@@H]3COP(=O)(O)O[C@H]3[C@@H](O)[C@H](n4cnc5c(N)ncnc54)O[C@@H]3COP(=O)(O)O[C@H]3[C@@H](O)[C@H](n4cnc5c(N)ncnc54)O[C@@H]3COP(=O)(O)O[C@H]2[C@H]1O [cA4]
ssRNA cleavage, denaturing PAGE; fluorescent RNA reporters: TtCan1 is a cA4-dependent single-stranded RNase (ssRNA) but does not cleave ssDNA
